Test results from patent publication US20180049996A1, “THERAPEUTIC AGENT FOR CHRONIC RESPIRATORY DISEASE AND COMPOSITION FOR INHIBITING CARDIAC FIBROSIS” (NIPPON HYPOX LABORATORIES INCORPORATED, priority 2015, published 2018).

Key:
[1] = system: Pulmonary Fibrosis Induced by Bleomycin; assay: Histopathologic examination of lungs, pulmonary fibrosis induced by bleomycin; format: in vivo, male SD rats; conditions: for Severity score: Alveolar space, Bleeding / Severity score: Alveolar space, Macrophage accumulation / Severity score: Alveolar space, Protein exudation / Severity score: Alveolar wall, Fibroblast accumulation / Severity score: Alveolar wall, Fibrosis of interstitial tissue / Severity score: Alveolar wall, Interstitial edema / Severity score: Alveolar wall, Mononuclear cell infiltration / Severity score: Circumvascular region, Perivascular edema / Severity score: Circumvascular region, Plasma cell infiltration / Severity score: Peribronchial and peribronchiolar regions, Fibrosis of interstitial tissue / Severity score: Peribronchial and peribronchiolar regions, Lymphoid follicle hyperplasia / Severity score: Type II alveolar epithelial cell, Adenomatous hyperplasia / Severity score: Type II alveolar epithelial cell, Atypia and dysplasia: day 20 after bleomycin
Experimental: Bleomycin is used to produce disease-model animals of interstitial pneumonia. The bleomycin and 2,3,5-trimethylhydroquinone-1-hexyl ether (HTHQ) as the hydroquinone derivative represented by the general formula (1) described above of the present invention were simultaneously administered to male SD rats of 10 week old after birth to examine the effect of the action. The test groups consisted of the control group to which sterile saline was administered; test group 1 to which bleomycin (7.5 mg/kg body weight) alone was administered; test group 2 to which bleomycin (7.5 mg/kg body weight) and HTHQ (50 mg/kg body weight/day) were administered in combination; and test group 3 to which bleomycin (7.5 mg/kg body weight) and HTHQ (200 mg/kg body weight/day) were administered in combination.
In test groups 1 to 3, bleomycin was orally administered in a single dose. In test groups 2 and 3, 2,3,5-trimethylhydroquinone-1-hexyl ether (HTHQ) was daily orally administered for 10 or 20 days starting from 24 h after the administration of bleomycin. In test group 1, olive oil, which was used as a solvent of HTHQ, was daily orally administered at 10 mL/kg/day starting from 24 h after the administration of bleomycin. The number of animals in each group was 16. 8 animals of each group were sacrificed on days 10 and 20 after the administration of bleomycin and measurement of body weight, lung autopsy, histopathologic examination of lungs and bronchoalveolar lavage examination were conducted.
The main lung lesions observed in the rats in test group 1 (the bleomycin-single administration group) on day 10 after the administration were the peribronchial and peribronchiola enlargement of alveoli, the hyperplasia of the alveolar wall, the infiltration of monocytes and lymphocytes in alveolar walls and interstitial tissue, and the exudation of alveolar macrophage into alveolar spaces. These lesions were alleviated in rats in test groups 2 and 3 (the HTHQ-administered groups) compared to the tissue in test group 1.
The result of the histopathologic examination of lungs of the control group and the test groups on day 20 after the administration of bleomycin is shown in Table 1 below. “−” indicates “not found”, “+” indicates “mild”, “++” indicates “moderate”, and “+++” indicates “severe” in severity scores. In test group 1 (the bleomycin-single administration group), the hyperplasia and fibrosis of peribronchial and adjacent alveolar walls became remarkable compared to the tissue on day 10 after the administration and the morphology of alveolus almost disappeared due to the infiltration of lymphocytes and neutrophils. The alveolar macrophages infiltrated within alveolar spaces were buried in surrounding tissues.

ovalbumin-specific IgE = assay: Content of ovalbumin-specific IgE in serum, ovalbumin asthma model; format: in vivo, BALB/c female mice; conditions: HTHQ 20 and 40 mg/kg/day oral; day 25; no significant difference
Experimental: 6 week old BALB/c female mice were purchased and the mice were divided into 5 groups with 5 animals per group shown in Table 3 below after habituation breeding of about 2 weeks.
The test was conducted on the schedule of sensitization, causing diseases and administration of test materials shown in FIG. 12. “IP” in FIG. 12 refers to ovalbumin sensitization treatment by the intraperitoneal administration of ovalbumin/aluminum hydroxide, and “IH” refers to inhalation exposure treatment of ovalbumin, and “PO” refers to the administration of the test materials. Specifically, 200 μL of PBS (pH 7.4) emulsified by the addition of 20 μg ovalbumin and 2 mg aluminum hydroxide as an adjuvant was intraperitoneally administered to all mice in 4 groups except the normal control group (the initial sensitization, day 1 of the test). Then, after 2 weeks (day 14 of the test), the second sensitization treatment was conducted in the same way as the initial sensitization. […]
On day 25 of the test, the total contents of IgE and contents of ovalbumin-specific IgE in serums were measured using blood collected from orbital sinuses of the mice. An ELISA kit for IgE measurement (a product from BioLegend, Inc.) was used for the measurement and the contents were measured at wavelength of 450 nm using a micro plate reader (a product from Bio-Rad Laboratories, Inc.).

[2] = Test group 2: bleomycin 7.5 mg/kg + HTHQ 50 mg/kg/day oral
[3] = Test group 3: bleomycin 7.5 mg/kg + HTHQ 200 mg/kg/day oral

CCCCCCOc1cc(C)c(O)c(C)c1C [HTHQ, 2,3,5-trimethylhydroquinone-1-hexyl ether]
alleviated: histopathologic lung lesions ([1]; test groups 2 and 3: bleomycin 7.5 mg/kg + HTHQ 50 or 200 mg/kg/day oral, day 10, compared to test group 1)
−: Severity score: Alveolar space, Bleeding [1, 3] | Severity score: Circumvascular region, Perivascular edema [1, 3] | Severity score: Circumvascular region, Plasma cell infiltration [1, 3]
+: Severity score: Alveolar space, Bleeding [1, 2] | Severity score: Alveolar space, Macrophage accumulation [1, 2] | Severity score: Alveolar space, Protein exudation [1, 2] | Severity score: Alveolar wall, Interstitial edema [1, 2] | Severity score: Circumvascular region, Perivascular edema [1, 2] | Severity score: Circumvascular region, Plasma cell infiltration [1, 2] | Severity score: Peribronchial and peribronchiolar regions, Fibrosis of interstitial tissue [1, 2] | Severity score: Peribronchial and peribronchiolar regions, Lymphoid follicle hyperplasia [1, 2] | Severity score: Type II alveolar epithelial cell, Atypia and dysplasia [1, 2] | Severity score: Alveolar space, Macrophage accumulation [1, 3] | Severity score: Alveolar wall, Fibroblast accumulation [1, 3] | Severity score: Alveolar wall, Fibrosis of interstitial tissue [1, 3] | Severity score: Alveolar wall, Interstitial edema [1, 3] | Severity score: Peribronchial and peribronchiolar regions, Fibrosis of interstitial tissue [1, 3] | Severity score: Peribronchial and peribronchiolar regions, Lymphoid follicle hyperplasia [1, 3] | Severity score: Type II alveolar epithelial cell, Adenomatous hyperplasia [1, 3] | Severity score: Type II alveolar epithelial cell, Atypia and dysplasia [1, 3]
++: Severity score: Alveolar wall, Fibroblast accumulation [1, 2] | Severity score: Alveolar wall, Fibrosis of interstitial tissue [1, 2] | Severity score: Alveolar wall, Mononuclear cell infiltration [1, 2] | Severity score: Type II alveolar epithelial cell, Adenomatous hyperplasia [1, 2] | Severity score: Alveolar space, Protein exudation [1, 3] | Severity score: Alveolar wall, Mononuclear cell infiltration [1, 3]
milder than test group 1: degree of histopathologic lung lesions ([1]; test groups 2 and 3: bleomycin 7.5 mg/kg + HTHQ 50 or 200 mg/kg/day oral, day 20, compared to test group 1)
a declining trend was seen: amount of ovalbumin-specific IgE in serum (ovalbumin-specific IgE)
